Experimental data: patent publication US7087424B1, “Method of controlling fungal pathogens, and agents useful for same” (priority 1999, dated 2006)
Like-named read-outs stand apart in the source and are kept apart here.

How the values were obtained:
[1] = media pH with purified acids (Table 2); assay type: physicochemical
[2] = system: take-all fungus; experiment: agar overlay / PDA plate bioassay against take-all fungus; assay type: cell-based, G. graminis var tritici; details: for inhibition zone against take-all fungus: FIG. 6B, 12.5 mg purified sugar acid, agar overlay bioassay; for zone of inhibition at 7500 µg/disc / zone of inhibition at 12500 µg/disc / zone of inhibition at 25000 µg/disc: Gaeumannomyces graminis, read-out: Clearance zone radii; for zone of inhibition at 7500 µg/disc: amount 7.5 mg; for zone of inhibition at 12500 µg/disc: amount 12.5 mg; for zone of inhibition at 25000 µg/disc: amount 25.0 mg; for bioactivity against take-all: purified acids, PDA plate bioassay, FIG. 6A/6B; for protection against take-all: summary of Table 2
Text: A modification of the agar plug assay (Poplawsky et al., 1988) was used to assay for bioactivity of extracts of Pseudomonas strain AN5, or derivative strains thereof, against take-all fungus, wherein an agar overlay assay was used to test activity of specific fractions. This assay involves macerating the take-all fungus grown in Potato Dextrose (PD) broth and seeding it to a Potato Dextrose Agar (PDA) overlay. This PDA overlay was poured onto thick PDA plates. Fractions to be tested for activity were spotted on top of the overlay, and the plates were dried and incubated at 16° C. for 3–5 days.
Active fractions were identified by the appearance of a clearance zone in the plates, within an opaque background of cultured fungus.

[3] = system: Botrytis fabae (Chocolate Spot Fungus); experiment: in vitro bioassays against B. fabae; assay type: cell-based
Text: Accordingly, it is within the scope of the present invention to produce transgenic faba bean plants which produce sugar acids, using the methods described herein, to enhance tolerance of faba beans to B. fabae.

[4] = cited from earlier work
[5] = cited from earlier work; remark: listed apart in the source

SMILES | media pH ([1]; amount 4.2 to 8.4 mg) | media pH ([1]; amount 25.0 mg) | inhibition zone against take-all fungus [2] | zone of inhibition at 7500 µg/disc [2] [mm] | zone of inhibition at 12500 µg/disc [2] [mm] | zone of inhibition at 25000 µg/disc [2] [mm] | bioactivity against take-all [2] | biological activity against take-all relative to gluconic acid [2] | suppression of growth of B. fabae [3] | relation of amount used to size of inhibition zone ([2]; FIG. 6A, 25, 15, 12.5, 7.5 mg pure gluconic acid) | protection against take-all [2] | pKa [4] | solubility ([5]; in chloroform and methylene chloride) | solubility ([5]; in water, methanol and ethyl acetate)
O=C1O[C@H]([C@@H](O)CO)C(O)=C1O [Ascorbic acid, ascorbic acid] |  | 1.9 | strong inhibition zones | 0 | 9 | 20 | possessed activity |  |  |  |  |  |  | 
O=C[C@H](O)[C@@H](O)[C@@H](O)[C@H](O)C(=O)O [Galacturonic acid, galacturonic acid] |  | 1.7 |  | 7 | 20 | 25 |  | not as strong as gluconic acid |  |  |  |  |  | 
O=C(O)[C@H](O)[C@@H](O)[C@H](O)[C@H](O)CO [Gluconic acid, gluconic acid] |  | about 5.0 |  | 7 | 10 | 20 | strong biologically activity |  | suppress the growth and/or reproduction | positive correlation | confers protection |  |  | 
O=C(O)CCCC(=O)O [Glutaric acid, glutaric acid] |  | 2.0 | strong inhibition zones | 15 | 20 | 25 | possessed activity |  |  |  |  | 4.31 |  | 
O=C(O)c1cccc2nc3ccccc3nc12 [PCA, Phenazine-1-carboxylic acid] |  |  |  |  |  |  |  |  |  |  |  |  | highly soluble | insoluble
O=C([O-])[C@H](O)[C@@H](O)[C@H](O)[C@H](O)CO.[Na+] [Sodium gluconate, reference compound] |  | about 7.0 |  | 0 | 0 | 0 |  |  |  |  | did not confer significant protection |  |  | 

Second part, led by results:

media pH ([1]; amount 4.2 to 8.4 mg) | media pH ([1]; amount 25.0 mg) | SMILES | inhibition zone against take-all fungus [2] | zone of inhibition at 7500 µg/disc [2] [mm] | zone of inhibition at 12500 µg/disc [2] [mm] | zone of inhibition at 25000 µg/disc [2] [mm] | bioactivity against take-all [2] | biological activity against take-all relative to gluconic acid [2] | suppression of growth of B. fabae [3] | relation of amount used to size of inhibition zone ([2]; FIG. 6A, 25, 15, 12.5, 7.5 mg pure gluconic acid) | protection against take-all [2] | pKa [4] | solubility ([5]; in chloroform and methylene chloride) | solubility ([5]; in water, methanol and ethyl acetate)
2.4 |  | CC(=O)O [Acetic acid, reference compound] |  |  |  |  |  |  |  |  |  |  |  | 
 | 1.7 | O=C[C@H](O)[C@@H](O)[C@H](O)[C@H](O)C(=O)O [Glucuronic acid, glucuronic acid] | strong inhibition zones | 0 | 10 | 20 | possessed activity |  |  |  |  |  |  | 
 | 1.5 | O=C(O)CC(O)C(=O)O (stereo not shown) [Malic acid, malic acid] | strong inhibition zones | 10 | 20 | 25 | possessed activity |  |  |  |  |  |  | 
